The text below walks through data of paper PMC10473604 (bioRxiv, 2023).

The experiment deals with HLA-A2. Briefly: HLA-I binding assay with biotin-tagged HLA-A2 monomers. Also on record: species or system human. Particulars: in-silico predicted HLA-A2 binders not listed in Fig. 1G.
As to VIASYPWPI [CVB1–2-3–5-6_2051–2059], the “HLA-A2 binding in vitro, in words” value is “did not confirm as binders”.

With GIIYIIYKL [CVB1–2-3–4-5–6_1502–1510], the “HLA-A2 binding in vitro, in words” value is reported as “did not confirm as binders”.

For VMGDALGSV [ZnT8_245–253], the “HLA-A2 binding in vitro, in words” value was “binding”.

Regarding KLPDALSQM [CVB1_150–158], the “HLA-A2 binding in vitro, in words” value was “did not confirm as binders”.
